According to doi:10.1101/2023.10.03.560722, “Drug Discovery in Low Data Regimes: Leveraging a Computational Pipeline for the Discovery of Novel SARS-CoV-2 Nsp14-MTase Inhibitors” (bioRxiv, 2024):
Like-named read-outs stand apart in the source and are kept apart here.

How the values were obtained:
Experiment in all cases: human MTase selectivity panel
Type in all cases: biochemical
NSD3 = molecular target: T1, NSD3 (Homo sapiens, UniProt Q9BZ95)
T1 sequence (Q9BZ95 1-1437): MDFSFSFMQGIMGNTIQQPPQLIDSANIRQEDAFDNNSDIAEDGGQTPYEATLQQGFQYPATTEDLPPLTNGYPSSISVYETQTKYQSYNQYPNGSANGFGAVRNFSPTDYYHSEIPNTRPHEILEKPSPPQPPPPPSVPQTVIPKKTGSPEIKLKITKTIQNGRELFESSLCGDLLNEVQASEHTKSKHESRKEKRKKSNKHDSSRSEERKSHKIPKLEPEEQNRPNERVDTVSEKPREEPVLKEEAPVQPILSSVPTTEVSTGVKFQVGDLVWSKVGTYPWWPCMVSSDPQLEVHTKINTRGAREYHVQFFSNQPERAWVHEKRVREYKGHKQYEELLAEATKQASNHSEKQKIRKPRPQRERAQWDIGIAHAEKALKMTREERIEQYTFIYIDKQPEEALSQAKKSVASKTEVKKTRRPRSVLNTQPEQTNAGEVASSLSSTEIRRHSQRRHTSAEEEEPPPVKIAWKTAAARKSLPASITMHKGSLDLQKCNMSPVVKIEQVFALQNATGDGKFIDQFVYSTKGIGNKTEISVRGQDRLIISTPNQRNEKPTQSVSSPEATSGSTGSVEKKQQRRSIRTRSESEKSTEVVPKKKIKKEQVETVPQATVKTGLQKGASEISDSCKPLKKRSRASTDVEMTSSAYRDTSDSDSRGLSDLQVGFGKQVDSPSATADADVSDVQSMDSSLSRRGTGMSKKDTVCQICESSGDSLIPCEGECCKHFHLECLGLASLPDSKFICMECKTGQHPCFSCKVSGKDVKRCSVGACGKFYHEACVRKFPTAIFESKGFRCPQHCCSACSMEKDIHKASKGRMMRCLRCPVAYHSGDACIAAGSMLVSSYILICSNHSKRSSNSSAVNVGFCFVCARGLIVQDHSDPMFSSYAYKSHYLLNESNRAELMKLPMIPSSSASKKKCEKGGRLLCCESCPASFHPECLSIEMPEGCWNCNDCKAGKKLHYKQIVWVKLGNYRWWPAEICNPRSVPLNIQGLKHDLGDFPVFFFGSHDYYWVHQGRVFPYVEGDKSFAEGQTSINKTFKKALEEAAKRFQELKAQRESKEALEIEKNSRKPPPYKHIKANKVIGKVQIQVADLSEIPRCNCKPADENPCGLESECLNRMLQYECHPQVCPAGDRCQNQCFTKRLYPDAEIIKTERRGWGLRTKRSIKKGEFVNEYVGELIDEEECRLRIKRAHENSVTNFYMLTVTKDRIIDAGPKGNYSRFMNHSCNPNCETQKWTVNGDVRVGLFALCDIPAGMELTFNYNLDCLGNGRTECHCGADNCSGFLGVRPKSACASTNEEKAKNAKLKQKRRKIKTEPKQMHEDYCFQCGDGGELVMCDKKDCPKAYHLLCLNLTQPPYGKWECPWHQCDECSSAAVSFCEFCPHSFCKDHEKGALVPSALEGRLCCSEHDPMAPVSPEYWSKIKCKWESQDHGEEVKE

SMYD2 = SMYD2 (Homo sapiens, UniProt Q9NRG4)
Sequence of SMYD2 (Q9NRG4 whole entry): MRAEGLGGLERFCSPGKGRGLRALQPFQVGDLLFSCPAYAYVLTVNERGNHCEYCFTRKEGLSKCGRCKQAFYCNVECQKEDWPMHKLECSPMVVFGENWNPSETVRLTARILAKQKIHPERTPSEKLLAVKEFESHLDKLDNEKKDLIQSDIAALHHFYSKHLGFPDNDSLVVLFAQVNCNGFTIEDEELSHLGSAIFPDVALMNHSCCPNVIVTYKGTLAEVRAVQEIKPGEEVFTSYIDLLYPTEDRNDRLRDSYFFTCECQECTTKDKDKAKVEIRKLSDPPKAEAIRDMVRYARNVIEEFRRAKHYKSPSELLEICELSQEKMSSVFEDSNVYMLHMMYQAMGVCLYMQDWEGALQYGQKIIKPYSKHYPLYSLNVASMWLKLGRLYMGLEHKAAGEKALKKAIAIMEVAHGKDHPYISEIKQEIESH

PRMT8 = PRMT8 (Homo sapiens, UniProt Q9NR22)
Sequence of PRMT8 (Q9NR22 whole entry): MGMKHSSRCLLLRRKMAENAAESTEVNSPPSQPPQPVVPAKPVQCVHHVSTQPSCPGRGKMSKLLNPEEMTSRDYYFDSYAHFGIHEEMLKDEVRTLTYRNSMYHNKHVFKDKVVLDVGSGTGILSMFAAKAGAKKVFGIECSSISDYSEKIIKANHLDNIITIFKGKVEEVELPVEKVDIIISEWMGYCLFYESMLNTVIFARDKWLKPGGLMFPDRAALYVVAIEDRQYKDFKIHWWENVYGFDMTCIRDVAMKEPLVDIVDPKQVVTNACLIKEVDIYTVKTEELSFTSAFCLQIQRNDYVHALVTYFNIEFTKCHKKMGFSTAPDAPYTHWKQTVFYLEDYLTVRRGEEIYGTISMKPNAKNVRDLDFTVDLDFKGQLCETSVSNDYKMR

SUV39H1 = molecular target: T2, SUV39H1 (Homo sapiens, UniProt O43463)
T2 sequence (O43463 1-412): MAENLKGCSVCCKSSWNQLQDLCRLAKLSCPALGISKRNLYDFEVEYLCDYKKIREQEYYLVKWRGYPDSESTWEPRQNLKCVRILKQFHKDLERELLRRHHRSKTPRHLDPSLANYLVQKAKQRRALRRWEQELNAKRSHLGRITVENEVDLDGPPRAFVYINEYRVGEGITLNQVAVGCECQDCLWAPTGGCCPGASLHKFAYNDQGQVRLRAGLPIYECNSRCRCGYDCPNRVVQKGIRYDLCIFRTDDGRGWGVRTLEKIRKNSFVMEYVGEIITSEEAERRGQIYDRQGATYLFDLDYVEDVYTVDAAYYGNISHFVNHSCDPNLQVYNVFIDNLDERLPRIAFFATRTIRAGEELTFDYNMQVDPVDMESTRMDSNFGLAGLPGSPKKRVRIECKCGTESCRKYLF

PRMT9 = molecular target: T3, PRMT9 (Homo sapiens, UniProt Q6P2P2)
T3 sequence (Q6P2P2 1-845): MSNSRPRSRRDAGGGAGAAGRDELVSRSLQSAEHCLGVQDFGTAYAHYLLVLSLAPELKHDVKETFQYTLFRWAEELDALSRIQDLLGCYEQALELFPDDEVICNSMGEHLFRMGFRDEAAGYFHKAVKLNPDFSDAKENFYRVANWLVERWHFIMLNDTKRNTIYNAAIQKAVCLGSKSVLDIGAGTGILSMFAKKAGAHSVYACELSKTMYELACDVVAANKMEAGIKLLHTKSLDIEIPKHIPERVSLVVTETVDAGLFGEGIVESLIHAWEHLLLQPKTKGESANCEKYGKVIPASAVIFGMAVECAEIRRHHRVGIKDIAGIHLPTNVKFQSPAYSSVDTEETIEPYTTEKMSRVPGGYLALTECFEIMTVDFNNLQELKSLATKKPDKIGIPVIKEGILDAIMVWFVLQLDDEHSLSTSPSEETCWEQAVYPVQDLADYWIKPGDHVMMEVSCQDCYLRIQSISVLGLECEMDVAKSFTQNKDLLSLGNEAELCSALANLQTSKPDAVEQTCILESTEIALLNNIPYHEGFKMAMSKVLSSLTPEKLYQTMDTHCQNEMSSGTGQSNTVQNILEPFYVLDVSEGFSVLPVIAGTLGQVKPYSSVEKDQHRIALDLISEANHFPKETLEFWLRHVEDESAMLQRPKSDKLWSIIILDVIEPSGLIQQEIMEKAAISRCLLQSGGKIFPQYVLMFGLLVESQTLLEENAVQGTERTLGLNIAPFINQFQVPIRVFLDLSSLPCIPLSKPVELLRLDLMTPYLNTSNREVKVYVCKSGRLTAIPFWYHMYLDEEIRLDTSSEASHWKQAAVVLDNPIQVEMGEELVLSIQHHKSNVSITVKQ

[1] = average ± SD, read-out: Activity (%) at 10 µM Average
[2] = read-out: Activity (%) at 10 µM Replicate 1
[3] = read-out: Activity (%) at 10 µM Replicate 2
[4] = read-out: Activity (%) at 10 µM Replicate 3

## Nc1ncnc2c1ncn2[C@@H]1O[C@H](CSCc2ccc(Cl)cc2)[C@@H](O)[C@H]1O [NSC620333]
NSD3; [1]
  activity at 10 µM: 110 ± 5%
NSD3; [2]
  activity at 10 µM: 112%
NSD3; [3]
  activity at 10 µM: 104%
NSD3; [4]
  activity at 10 µM: 115%
SMYD2; [1]
  activity at 10 µM: 105 ± 8%
SMYD2; [2]
  activity at 10 µM: 104%
SMYD2; [3]
  activity at 10 µM: 114%
SMYD2; [4]
  activity at 10 µM: 99%
PRMT8; [1]
  activity at 10 µM: 96 ± 3%
PRMT8; [2]
  activity at 10 µM: 97%
PRMT8; [3]
  activity at 10 µM: 99%
PRMT8; [4]
  activity at 10 µM: 93%
SUV39H1; [1]
  activity at 10 µM: 96 ± 4%
SUV39H1; [2]
  activity at 10 µM: 99%
SUV39H1; [3]
  activity at 10 µM: 91%
SUV39H1; [4]
  activity at 10 µM: 97%
PRMT9; [1]
  activity at 10 µM: 117 ± 3%
PRMT9; [2]
  activity at 10 µM: 118%
PRMT9; [3]
  activity at 10 µM: 118%
PRMT9; [4]
  activity at 10 µM: 113%
